Assay results taken from PubChem BioAssay (NCI).
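Following 48 hours of exposure in 96-well plates, responses at five concentrations were used to interpolate endpoints linearly. TGI: total growth inhibition.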

Tests used:
Assay in all cases: NCI tumour cell line growth inhibition, 48 h
HCT-15 colon = tested on: HCT-15 colon
IGROV1 ovarian = tested on: IGROV1 ovarian
K-562 leukemia = tested on: K-562 leukemia
KM12 colon = tested on: KM12 colon
NCI-H23 lung = tested on: NCI-H23 lung
NCI/ADR-RES ovarian = tested on: NCI/ADR-RES ovarian
OVCAR-4 ovarian = tested on: OVCAR-4 ovarian
OVCAR-5 ovarian = tested on: OVCAR-5 ovarian
RXF 393 renal = tested on: RXF 393 renal
SK-MEL-5 melanoma = tested on: SK-MEL-5 melanoma
SK-OV-3 ovarian = tested on: SK-OV-3 ovarian
SW-620 colon = tested on: SW-620 colon
TK-10 renal = tested on: TK-10 renal
UO-31 renal = tested on: UO-31 renal

SMILES	TGI (HCT-15 colon)	TGI (IGROV1 ovarian)	TGI (K-562 leukemia)	TGI (KM12 colon)	TGI (NCI-H23 lung)	TGI (NCI/ADR-RES ovarian)	TGI (OVCAR-4 ovarian)	TGI (OVCAR-5 ovarian)	TGI (RXF 393 renal)	TGI (SK-MEL-5 melanoma)	TGI (SK-OV-3 ovarian)	TGI (SW-620 colon)	TGI (TK-10 renal)	TGI (UO-31 renal)
CC(=O)N(CCc1ccccc1)C(C#N)c1ccc(OCCCCCCCCCCOc2ccc(C(C#N)N(CCc3ccccc3)C(C)=O)cc2)cc1 (centres undefined)	> 100 µM	> 100 µM	> 100 µM	> 100 µM	> 100 µM	> 100 µM	44.2 µM	> 100 µM	63.2 µM	> 100 µM	> 100 µM	> 100 µM	> 100 µM	> 100 µM
N#CC(Nc1ccccc1)c1ccc(C(C#N)Nc2ccccc2)cc1 (centres undefined)	> 100 µM	> 100 µM	> 100 µM	> 100 µM	> 100 µM	> 100 µM	> 100 µM	> 100 µM	> 100 µM	> 100 µM	> 100 µM	> 100 µM	> 100 µM	> 100 µM
O=C(O)c1ccc2c(c1)CC1(C2)Cc2ccccc2C1=O (centres undefined)	> 100 µM	> 100 µM	> 100 µM	> 100 µM	> 100 µM	> 100 µM	> 100 µM	> 100 µM	> 100 µM	> 100 µM	> 100 µM	> 100 µM	> 100 µM	> 100 µM
CCOP(=O)(OCC)c1ccc(=O)[nH]c1-c1cccs1	> 100 µM	> 100 µM	> 100 µM	> 100 µM	> 100 µM	> 100 µM	> 100 µM	> 100 µM	> 100 µM	> 100 µM	> 100 µM	> 100 µM	> 100 µM	> 100 µM
O=c1[nH]nc(Cc2ccccc2)n1/N=C/c1ccccc1Cl	> 100 µM	> 100 µM	> 100 µM	> 100 µM	> 100 µM	> 100 µM	> 100 µM	> 100 µM	48.5 µM	> 100 µM	> 100 µM	> 100 µM	> 100 µM	> 100 µM
COc1cc(C2C3=C(COC3=O)Oc3cc4c(cc32)OCO4)ccc1OC(C)=O (centres undefined)	> 100 µM	–	> 38.7 µM	23.8 µM	> 100 µM	> 100 µM	> 29.8 µM	> 100 µM	> 100 µM	> 100 µM	0.909 µM	> 100 µM	> 100 µM	> 100 µM
CN(C(=O)Cc1ccc(Cl)c(Cl)c1)[C@@H]1CCCC[C@H]1[N+]1(C)CC=CC1	> 100 µM	> 100 µM	> 100 µM	> 100 µM	> 100 µM	> 100 µM	> 100 µM	> 100 µM	> 100 µM	> 100 µM	> 100 µM	> 100 µM	> 100 µM	> 100 µM
Cn1c(NS(=O)(=O)c2ccccc2)nc2ccccc21	> 100 µM	> 100 µM	> 100 µM	> 100 µM	> 100 µM	> 100 µM	> 100 µM	> 100 µM	> 100 µM	> 100 µM	> 100 µM	> 100 µM	> 100 µM	> 100 µM
Cc1ccc(S(=O)(=O)NC2C(=O)c3ccccc3C(=O)C2n2cnc3ccccc32)cc1 (centres undefined)	> 100 µM	75 µM	> 100 µM	> 100 µM	58.6 µM	73.6 µM	26.1 µM	> 100 µM	61.8 µM	42.6 µM	> 100 µM	94.4 µM	49.6 µM	–
COc1cc(NP(=O)(Oc2ccccc2)Oc2ccccc2)ccc1Nc1c2ccccc2nc2c1[nH]c1ccccc12	> 37.3 µM	> 100 µM	6.71 µM	> 100 µM	12.3 µM	20.9 µM	15.3 µM	30.2 µM	14.1 µM	10.3 µM	20.9 µM	12.9 µM	12.3 µM	16.6 µM
COc1ccc(C(c2c[nH]c3ccc(Br)cc23)c2c[nH]c3ccc(Br)cc23)cc1	0.624 µM	0.803 µM	0.423 µM	0.468 µM	1.47 µM	4.34 µM	1.25 µM	1.2 µM	0.578 µM	1.12 µM	2.58 µM	1.1 µM	2.27 µM	1.69 µM
CC(=O)OC1COC(n2c(-c3ccc(Cl)cc3)cc(-c3ccccc3)c(C#N)c2=S)C(OC(C)=O)C1OC(C)=O (centres undefined)	> 100 µM	> 31.6 µM	> 59.8 µM	> 100 µM	28.3 µM	33.8 µM	11.1 µM	> 100 µM	26.9 µM	> 42.2 µM	> 78.7 µM	> 100 µM	> 73.4 µM	38.4 µM
NC(=O)C(c1ccccc1)N1OC2C(=O)N(c3cccc4ccccc34)C(=O)C2C1c1c2ccccc2c(Cl)c2ccccc12 (centres undefined)	16.4 µM	39.8 µM	> 50 µM	7.75 µM	26 µM	28.2 µM	33.2 µM	19.3 µM	16.8 µM	11.2 µM	> 50 µM	> 50 µM	22.8 µM	20.3 µM
Nc1cn(Cc2ccccc2)c2nc(/C=C3/C=CC=CC3=O)c(O)n12	> 100 µM	> 100 µM	> 100 µM	> 100 µM	> 100 µM	> 100 µM	> 100 µM	> 100 µM	> 100 µM	> 100 µM	> 100 µM	> 100 µM	> 100 µM	> 100 µM
O=C1c2c(ccc3c2CCC3)CC12Cc1cc3c(cc1C2)CCC3	> 100 µM	> 100 µM	> 100 µM	> 100 µM	> 100 µM	> 100 µM	> 100 µM	> 100 µM	> 100 µM	> 100 µM	> 100 µM	> 100 µM	> 100 µM	> 100 µM
COc1c2ccccc2c(OC)c2nc(C)ccc12	> 100 µM	> 100 µM	> 78.6 µM	> 100 µM	> 100 µM	> 100 µM	> 100 µM	> 100 µM	> 100 µM	> 100 µM	> 100 µM	> 100 µM	> 100 µM	> 100 µM

SMILES	TGI (HCT-15 colon)	TGI (IGROV1 ovarian)	TGI (K-562 leukemia)	TGI (KM12 colon)	TGI (NCI-H23 lung)	TGI (NCI/ADR-RES ovarian)	TGI (OVCAR-4 ovarian)	TGI (OVCAR-5 ovarian)	TGI (RXF 393 renal)	TGI (SK-MEL-5 melanoma)	TGI (SK-OV-3 ovarian)	TGI (SW-620 colon)	TGI (TK-10 renal)	TGI (UO-31 renal)
Cc1ccc(SCC(CF)OCn2cc(F)c(=O)[nH]c2=O)cc1 (centres undefined)	> 100 µM	> 100 µM	> 100 µM	–	> 100 µM	> 100 µM	> 100 µM	> 100 µM	> 100 µM	> 100 µM	> 100 µM	> 100 µM	> 100 µM	> 100 µM
O=C(O)c1ccc(Nc2nc3ccccc3nc2-c2cccs2)cc1	> 100 µM	> 100 µM	> 100 µM	> 100 µM	> 100 µM	> 100 µM	> 100 µM	> 100 µM	> 100 µM	> 100 µM	> 100 µM	> 100 µM	> 100 µM	> 100 µM
Cc1cc(NCCCCCCCCCC[n+]2c(C)cc(N)c3ccccc32)c2ccccc2n1	18.4 µM	17.3 µM	2.36 µM	2.4 µM	6.54 µM	74.8 µM	> 100 µM	24.7 µM	> 100 µM	0.695 µM	12.9 µM	21.2 µM	18.3 µM	26.4 µM
O=C(C[n+]1ccccc1)N=N/C(C(=O)Nc1c(Cl)c(O)c2ccccc2c1O)=C1/C(=O)Oc2cc(O)ccc2C1=O	7.09 µM	14.7 µM	> 100 µM	> 100 µM	17.3 µM	85.1 µM	8.84 µM	25.5 µM	21.7 µM	2.26 µM	27.9 µM	20.6 µM	> 100 µM	26.3 µM
CC(=O)NC1C(O)C(O)C(CO)OC1n1ncc(=O)[nH]c1=O (centres undefined)	> 100 µM	> 100 µM	> 100 µM	> 100 µM	> 100 µM	> 100 µM	> 100 µM	> 100 µM	> 100 µM	> 100 µM	> 100 µM	> 100 µM	> 100 µM	> 100 µM
CC1=NN(c2nc(N)nc(CSCc3nc(N)nc(N(C)C)n3)n2)C(C)(C)C1	> 100 µM	> 100 µM	32.1 µM	> 100 µM	> 100 µM	> 100 µM	> 100 µM	> 100 µM	> 100 µM	> 100 µM	> 100 µM	> 100 µM	> 100 µM	> 100 µM
C=C(Br)CN(C(C)=O)C1CCCCC1	> 100 µM	> 100 µM	> 100 µM	> 100 µM	> 100 µM	> 100 µM	> 100 µM	> 100 µM	> 100 µM	> 100 µM	> 100 µM	> 100 µM	> 100 µM	> 100 µM
O=c1c2cccnc2cc(-c2ccccc2)n1CCO	> 100 µM	> 100 µM	> 100 µM	> 100 µM	> 100 µM	> 100 µM	> 100 µM	> 100 µM	> 100 µM	> 100 µM	> 100 µM	> 100 µM	> 100 µM	> 100 µM
CCOC(=O)/C(C#N)=C1\c2c([nH]c(=S)[nH]c2=O)Oc2ccc3ccccc3c21	> 100 µM	> 100 µM	> 100 µM	> 100 µM	> 100 µM	> 100 µM	> 100 µM	> 100 µM	> 100 µM	41.4 µM	> 100 µM	12.2 µM	> 100 µM	> 100 µM
COc1cccc2c(Nc3ccc(S(=O)(=O)NC(C)=O)cc3)c3ccc([N+](=O)[O-])cc3nc12	> 100 µM	> 86.7 µM	> 84.7 µM	> 35.3 µM	> 100 µM	> 100 µM	> 100 µM	> 100 µM	> 100 µM	> 78.3 µM	> 100 µM	> 79.8 µM	> 56.7 µM	> 100 µM
CC1(C)CCCCCCC2OC2CCCCCC(C)(C)C1=O (centres undefined)	> 100 µM	> 100 µM	> 82.6 µM	97 µM	> 100 µM	> 88.2 µM	> 100 µM	> 100 µM	49.5 µM	50.2 µM	> 100 µM	> 100 µM	> 100 µM	88.2 µM
COc1ccc2c(c1)N=C1CSC(c3cccc(Br)c3)N1C2 (centres undefined)	35.5 µM	80.7 µM	67.1 µM	36 µM	45.3 µM	58 µM	40.4 µM	56.8 µM	29.7 µM	27.6 µM	48 µM	> 100 µM	41 µM	30.7 µM
CCCCC(=O)NC1(c2cc3ccccc3s2)CCCCC1	> 100 µM	> 100 µM	> 100 µM	> 100 µM	> 100 µM	> 100 µM	> 100 µM	> 100 µM	> 100 µM	> 100 µM	> 100 µM	> 100 µM	> 100 µM	> 100 µM
CCCCCC(CO)C(O)(C(F)(F)F)C(F)(F)F (centres undefined)	> 10 µM	> 10 µM	> 10 µM	> 10 µM	> 10 µM	> 10 µM	> 10 µM	> 10 µM	> 10 µM	> 10 µM	> 10 µM	> 10 µM	> 10 µM	–
COc1ccc(-c2c(CN3CCOCC3)sc3nc4ccccc4n23)cc1	> 95 µM	> 86.8 µM	> 28.7 µM	> 100 µM	> 100 µM	> 42.8 µM	> 100 µM	> 74.7 µM	> 47.5 µM	98.8 µM	94.9 µM	> 100 µM	> 100 µM	> 100 µM
CCOC(=O)C(NC(=O)CC(C)C)(Nc1ccc(S(=O)(=O)Nc2nc(C)cc(C)n2)cc1)C(F)(F)F (centres undefined)	> 100 µM	> 100 µM	> 100 µM	> 100 µM	> 100 µM	> 100 µM	> 100 µM	> 100 µM	> 100 µM	> 100 µM	> 100 µM	> 100 µM	> 100 µM	> 100 µM
